# Reference: patent publication EP0173754A1, “7-THIAPROSTAGLANDIN E 1?'S AND PROCESS FOR THEIR PREPARATION” (TEIJIN LIMITED, priority 1984, dated 1985)
# Legend:
# [1] = test system: blood platelet aggregation; assay: In vitro blood platelet aggregation inhibition (ADP-induced, rabbit PRP); type: cell-based, rabbits; details: Oryctolagus cuniculus, 10 uM ADP (final), preincubated 37°C 2 minutes, read-out: Anti-platelet aggregation effect IC50
# Description: The in vitro blood platelet aggregation inhibition effect of the sample compounds to be tested was examined by using rabbits. That is, blood was collected from the ear vein of native Japanese white male domestic rabbits weighing 2.5 to 3.5 kg. The collected blood was 9 parts by volume per 1 part by volume of a 3.8% sodium citrate solution. The blood was centrifuged at 1000 r.p.m. for 10 mintues. The upper layer portion was separated as PRP (rich in platelet blood plasma). The lower layer portion was further centrifuged at 2800 r.p.m. for 10 mintues to divide it into two layers. The upper layer portion was separated as PPP (poor in platelet blood plasma). The number of the platelet was diluted with PPP to 6 to […]. […]
# When the activity of the sample compounds was determined, the ethanol solution was diluted with a phosphoric acid buffer (PH 7.4). The ethanol solution diluted with the buffer was left to stand at a temperature of 0°C for 4 hours, after which the activity of the sample compounds was determined in the same manner.
# The platelet aggregation inhibition was calculated by the following formula: [formula] • T : the transmittance of the system to which the phosphoric acid buffer is added • T: the transmittance of the system to which the sample compounds are added […]
# [2] = test system: Ethanol Ulcer; assay: Effect against ethanol ulcer in rats; type: in vivo; details: Rattus norvegicus, po, 1 h; P.O; SD type male rats; 75% ethanol 1 ml/kg orally 30 minutes after sample; ulcer length one hour after ethanol; read-out: Antiulcerative effect ED50
# Description: SD type male rats (7 weeks old and body weight of 220 g) were abstained from food for 24 hours except giving water and then subjected to experiments.
# The sample compound to be tested was dissolved in a phosphoric acid buffer (pH 7.4) containing 0.9% NaCl and the solution was orally administered to the rats. 30 minutes after the administration, 75% ethanol was orally administered to the rats at a dose of 1 ml/kg. One hour after the administration of the ethanol, the rats were killed and the ulcer formation in the stomach was examined by determining the length of the ulcer formation portion under a stereomicroscope. From this measurement, the inhibition of ulcer formation by the sample compound was calculated to determine the ED50 value.
# [3] = test system: ulcer formation induced by indomethacin; assay: Antiulcerative effect: inhibition of indomethacin-induced ulcer formation in rats; type: in vivo; details: Rattus norvegicus, po; P.O; Wister male rats; indomethacin 20 mg/kg orally 30 minutes after sample; ulcer length 5 hours after indomethacin
# Description: The inhibiting effect on ulcer formation induced by indomethacin was examined by using rats. Wister male rats (7 weeks old and body weight of 220 g) were abstained from food for 24 hours except giving water and then subjected to experiments.
# The sample compounds to be tested were dissolved in a phosphoric acid buffer (pH 7.4) containing 0.9% NaCl and the solution was orally administered to the rats. 30 minutes after the administration, indomethacin was orally administered to the rats at a dose of 20 mg/kg. 5 hours after the administration of the indomethacin, the rats were kileld and the ulcer formation in the stomach was examined by determining the length of the ulcer formation portion under a stereomicroscope. From this measurement, the inhibition of ulcer formation by the sample compounds were calculated to determine the ED50 values.
smiles,measurement,setting,value
CCCCC(O)C/C=C/[C@H]1[C@H](O)CC(=O)[C@@H]1SCCCCCC(=O)OC (stereo partly drawn) [Compound of this invention],IC50,[1],17 µg/mL
same,ED50,[2],0.018 mg/kg
same,ED50,[3],0.01 mg/kg
